What was measured:
Experiment in all cases: relative viability (nuclei count vs DMSO), 5 days (fraction); higher = more cells survive
Entinostat + OSI-027 = compound: Nc1ccccc1NC(=O)c1ccc(CNC(=O)OCc2cccnc2)cc1 [Entinostat] + COc1cccc2cc(-c3nc([C@H]4CC[C@H](C(=O)O)CC4)n4ncnc(N)c34)[nH]c12 [OSI-027] (partner 0.5 µM)
Outline: (§1)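 Medians of duplicate plates are given as relative viability. That measure is the nuclei count in treated wells divided by the count in vehicle wells. Counts were taken on 4× images of lung cancer cell lines in 1536-well plates, 5 days after pin-tool dosing the day after seeding with one drug alone or a fixed anchor-drug dose plus five library-drug doses (not always all listed) in √10 steps.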

[1] = compound: C1COCCN1C2=NC(=NC3=C2OC4=C3C=CC=N4)C5=CC(=CC=C5)NC(=O)C6=CN=C(C=C6)N + Nc1nc2[nH]cc(CCc3ccc(C(=O)N[C@@H](CCC(=O)O)C(=O)O)cc3)c2c(=O)[nH]1 [Pemetrexed] (partner 0.2 µM)
Outline: as §1

[2] = compound: C1COCCN1C2=NC(=NC3=C2OC4=C3C=CC=N4)C5=CC(=CC=C5)NC(=O)C6=CN=C(C=C6)N + O=C(CCCCCCC(=O)Nc1ccccc1)NO [Vorinostat] (partner 1 µM)
Outline: as §1

SGI-1776 + Dasatinib = compound: CN1CCC(CNc2ccc3ncc(-c4cccc(OC(F)(F)F)c4)n3n2)CC1 [SGI-1776] + Cc1nc(Nc2ncc(C(=O)Nc3c(C)cccc3Cl)s2)cc(N2CCN(CCO)CC2)n1 [Dasatinib] (partner 0.075 µM)
Outline: as §1

Cell Line: UMC-11
- relative viability (Entinostat + OSI-027; first compound 0.02 µM): 0.445
- relative viability (Entinostat + OSI-027; first compound 0.06325 µM): 0.499
- relative viability (Entinostat + OSI-027; first compound 0.2 µM): 0.388
- relative viability (Entinostat + OSI-027; first compound 0.6325 µM): 0.207
- relative viability (Entinostat + OSI-027; first compound 2 µM): 0.213
- relative viability ([1]; first compound 0.02 µM): 0.772
- relative viability ([1]; first compound 0.06325 µM): 0.827
- relative viability ([1]; first compound 0.2 µM): 0.694
- relative viability ([1]; first compound 0.6325 µM): 0.814
- relative viability ([1]; first compound 2 µM): 0.445
- relative viability ([2]; first compound 0.02 µM): 0.415
- relative viability ([2]; first compound 0.06325 µM): 0.382
- relative viability ([2]; first compound 0.2 µM): 0.352
- relative viability ([2]; first compound 0.6325 µM): 0.369
- relative viability ([2]; first compound 2 µM): 0.264
- relative viability (SGI-1776 + Dasatinib; first compound 0.08 µM): 0.449
- relative viability (SGI-1776 + Dasatinib; first compound 0.8 µM): 0.455
- relative viability (SGI-1776 + Dasatinib; first compound 2.53 µM): 0.615
- relative viability (SGI-1776 + Dasatinib; first compound 8 µM): 0.392
